The target in experiment [1] is T1, Nuclear factor erythroid 2-related factor 2 (Rattus norvegicus) (UniProt O54968).
T1 sequence (whole entry): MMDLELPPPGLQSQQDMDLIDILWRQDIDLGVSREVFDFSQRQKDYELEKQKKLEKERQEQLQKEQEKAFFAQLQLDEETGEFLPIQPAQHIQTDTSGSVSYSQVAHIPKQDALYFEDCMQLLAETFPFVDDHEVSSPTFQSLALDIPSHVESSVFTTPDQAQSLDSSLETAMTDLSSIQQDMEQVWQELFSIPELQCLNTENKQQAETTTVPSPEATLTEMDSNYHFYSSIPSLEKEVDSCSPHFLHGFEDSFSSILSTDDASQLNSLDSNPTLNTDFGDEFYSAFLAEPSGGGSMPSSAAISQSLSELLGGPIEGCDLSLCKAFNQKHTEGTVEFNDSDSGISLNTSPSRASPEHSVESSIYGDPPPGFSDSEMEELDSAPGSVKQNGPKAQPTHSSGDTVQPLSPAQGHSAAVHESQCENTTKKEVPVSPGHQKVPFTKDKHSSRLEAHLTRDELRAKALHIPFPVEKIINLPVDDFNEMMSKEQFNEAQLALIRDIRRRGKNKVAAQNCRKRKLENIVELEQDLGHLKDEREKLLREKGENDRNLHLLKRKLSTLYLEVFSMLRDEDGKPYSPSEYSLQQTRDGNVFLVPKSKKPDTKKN
Nature of the experiment: Induction of NRF2/ARE enhancer activity rat PC12 cells transfected with ARE-firefly luciferase reporter gene at 10 uM after 24 hrs by luciferase assay. It counts as functional, cell-based. The following applies: PC-12.

The target of experiment [2] is T1, Nuclear factor erythroid 2-related factor 2 (Rattus norvegicus). Put plainly: Activation of Nrf2/ARE in rat PC12 cells assessed as upregulation of HO-1 mRNA expression at 10 uM after 6 hrs by RT-PCR. It counts as functional, cell-based. To be noted: PC-12.
In experiment [3] the test system is PC-12. Put plainly: Increase in intracellular ROS production in rat PC12 cells at 10 uM after 6 hrs by CM-H2-DCFDA staining-based fluorescence assay. The format is functional, cell-based.
For experiment [4], the system named is PC-12. Nature of the experiment: Increase in intracellular ROS production in rat PC12 cells at 10 uM up to 1 hr by CM-H2-DCFDA staining-based fluorescence assay. It counts as functional, cell-based.
The target of experiment [5] is T1, Nuclear factor erythroid 2-related factor 2 (Rattus norvegicus). Nature of the experiment: Activation of Nrf2/ARE in rat PC12 cells assessed as induction of NQO-1 protein expression by Western blot analysis. It counts as functional, cell-based. The following applies: PC-12. (A western blot detects proteins with antibodies after separation by electrophoresis.)
Experiment [6] relates to PC-12. Nature of the experiment: Increase in intracellular ROS production in rat PC12 cells assessed as NRF2-mediated HO-1 induction at 10 uM after 24 hrs by Western blot analysis. The format is functional, cell-based.
Experiment [7] deals with PC-12. Nature of the experiment: Increase in intracellular ROS production in rat PC12 cells assessed as induction of p38 phosphorylation at 10 uM after 1 hr pretreated with N-acetylcysteine for 1 hr before compound addition by Western blot analysis. The format is functional, cell-based.
The target of experiment [8] is Mitogen-activated protein kinase 3 (Rattus norvegicus) (UniProt P21708). Put plainly: Phosphorylation of ERK1 in rat PC12 cells at 10 uM after 30 mins by Western blot analysis. The format is cell-based. To be noted: PC-12.
Mitogen-activated protein kinase 3 (Rattus norvegicus), sequence (P21708 whole entry): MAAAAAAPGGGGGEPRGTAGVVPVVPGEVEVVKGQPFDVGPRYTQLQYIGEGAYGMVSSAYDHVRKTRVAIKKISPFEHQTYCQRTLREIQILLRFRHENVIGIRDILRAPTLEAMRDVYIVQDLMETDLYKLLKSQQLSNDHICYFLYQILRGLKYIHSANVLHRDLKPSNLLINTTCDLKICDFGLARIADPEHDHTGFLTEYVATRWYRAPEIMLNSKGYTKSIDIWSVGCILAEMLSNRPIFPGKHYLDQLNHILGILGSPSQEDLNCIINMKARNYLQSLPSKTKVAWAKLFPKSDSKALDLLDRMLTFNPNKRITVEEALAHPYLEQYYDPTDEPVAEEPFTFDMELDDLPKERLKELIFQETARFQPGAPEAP
The subject of experiment [9] is PC-12. Nature of the experiment: Neuroprotective activity against H2O2-induced oxidative stress in rat PC12 cells assessed as cell viability pretreated with 5 uM for 6 hrs measured before inducer addition. The format is functional. The following applies: read-out: Activity.
The target of experiment [10] is T1, Nuclear factor erythroid 2-related factor 2 (Rattus norvegicus). Nature of the experiment: Activation of Nrf2/ARE in rat PC12 cells assessed as upregulation of HO-1 protein expression at 10 uM after 12 hrs by Western blot analysis. The format is functional, cell-based. To be noted: PC-12.
Experiment [11] concerns PC-12. Nature of the experiment: Neuroprotective activity against H2O2-induced oxidative stress in rat PC12 cells assessed as cell viability pretreated with 2 uM for 6 hrs measured before inducer addition. The format is functional. To be noted: read-out: Activity.
Experiment [12] addresses T1, Nuclear factor erythroid 2-related factor 2 (Rattus norvegicus). Put plainly: Activation of Nrf2/ARE in rat PC12 cells assessed as effect on HO-1 protein level at 10 uM after 24 hrs by Western blot analysis. It counts as functional, cell-based. The following applies: PC-12.
Experiment [13] deals with PC-12. Put plainly: Neuroprotective activity against H2O2-induced oxidative stress in rat PC12 cells assessed as cell viability pretreated with 10 uM for 6 hrs measured before inducer addition. The following applies: read-out: Activity. It counts as functional.
The target in experiment [14] is T1, Nuclear factor erythroid 2-related factor 2 (Rattus norvegicus). Put plainly: Induction of nuclear translocation of Nrf2 in rat PC12 cells at 10 uM after 6 hrs by Western blot analysis. The following applies: PC-12. The format is functional, cell-based.
Experiment [15] has as its system PC-12. Nature of the experiment: Increase in intracellular ROS production in rat PC12 cells assessed as NRF2-mediated HO-1 induction at 10 uM after 24 hrs pretreated with N-acetylcysteine for 1 hr before compound addition by Western blot analysis. It counts as functional, cell-based.
For experiment [16], the system named is PC-12. Nature of the experiment: Phosphorylation of p38 kinase in rat PC12 cells at 10 uM up to 120 mins by Western blot analysis. It counts as cell-based.
Experiment [17] has as its target T1, Nuclear factor erythroid 2-related factor 2 (Rattus norvegicus). Nature of the experiment: Induction of nuclear translocation of Nrf2 in rat PC12 cells at 10 uM after 1 hr by Western blot analysis. The format is functional, cell-based. To be noted: PC-12.
The target is the same in experiment [18]. Put plainly: Activation of Nrf2/ARE in rat PC12 cells assessed as induction of GCSc protein expression at 10 uM by Western blot analysis. It counts as functional, cell-based. To be noted: PC-12.
Experiment [19] addresses Mitogen-activated protein kinase 1 (Rattus norvegicus) (UniProt P63086). Put plainly: Phosphorylation of ERK2 in rat PC12 cells at 10 uM after 30 mins by Western blot analysis. To be noted: PC-12. The format is cell-based.
Experiment [20] has as its system PC-12. Nature of the experiment: Phosphorylation of JNK in rat PC12 cells at 10 uM up to 120 mins by Western blot analysis. It counts as cell-based.
Experiment [21] deals with PC-12. Put plainly: Increase in intracellular ROS production in rat PC12 cells at 10 uM after 0.5 hr by CM-H2-DCFDA staining-based fluorescence assay. The format is functional, cell-based.
Experiment [22] concerns the target T1, Nuclear factor erythroid 2-related factor 2 (Rattus norvegicus). Nature of the experiment: Effect on Nrf2 protein in rat PC12 cell cytoplasmic fraction at 10 uM up to 6 hrs by Western blot analysis. It counts as functional, cell-based. To be noted: PC-12.
Experiment [23] has as its system PC-12. Nature of the experiment: Neuroprotective activity against H2O2-induced oxidative stress in rat PC12 cells expressing dominant-negative Nrf2 mutant assessed as cell viability pretreated with 10 uM for 6 hrs. It counts as functional, cell-based.
The target in experiment [24] is T1, Nuclear factor erythroid 2-related factor 2 (Rattus norvegicus). Put plainly: Activation of Nrf2/ARE in rat PC12 cells assessed as inhibition of H2O2-induced oxidative stress by measuring cell viability pretreated with 10 uM for 6 hrs in presence of HO-1 inhibitor Zn-protoporphyrin. The format is functional, cell-based. The following applies: PC-12.
The target is the same in experiment [25]. Nature of the experiment: Activation of Nrf2/ARE in rat PC12 cells assessed as upregulation of HO-1 protein expression at 1 to 10 uM after 12 hrs by Western blot analysis. To be noted: PC-12. The format is functional, cell-based.
Experiment [26] relates to PC-12. Put plainly: Increase in intracellular ROS production in rat PC12 cells assessed as induction of p38 phosphorylation at 10 uM after 1 hr by Western blot analysis. It counts as functional, cell-based.
Experiment [27] deals with T1, Nuclear factor erythroid 2-related factor 2 (Rattus norvegicus). Put plainly: Activation of Nrf2/ARE in rat PC12 cells assessed as upregulation of HO-1 protein expression at 10 uM after 6 hrs by Western blot analysis. To be noted: PC-12. It counts as functional, cell-based.

Activity calls are given as the source filed them. The rule behind the calls is not given here.

Mitogen-activated protein kinase 1 (Rattus norvegicus), sequence (P63086 whole entry): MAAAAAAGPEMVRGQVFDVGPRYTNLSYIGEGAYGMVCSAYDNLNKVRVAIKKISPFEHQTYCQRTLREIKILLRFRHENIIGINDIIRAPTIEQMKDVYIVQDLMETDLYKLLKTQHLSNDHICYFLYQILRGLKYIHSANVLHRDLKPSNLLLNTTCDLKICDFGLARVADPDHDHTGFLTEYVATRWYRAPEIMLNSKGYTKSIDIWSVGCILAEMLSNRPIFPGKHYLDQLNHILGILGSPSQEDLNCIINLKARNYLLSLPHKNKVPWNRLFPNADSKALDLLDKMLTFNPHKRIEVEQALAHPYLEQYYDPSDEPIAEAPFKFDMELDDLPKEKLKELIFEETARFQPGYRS

As for `Oc1ccc([C@H]2OC[C@H]3[C@@H]2CO[C@@H]3c2ccc(O)c(O)c2)cc1O`, the outcome in experiment [1] was Active.

As for `c1cc2c(cc1[C@H]1OC[C@H]3[C@@H]1CO[C@H]3c1ccc3c(c1)OCO3)OCO2`, the result in experiment [1] was inactive.

In the case of `COc1cc(C2OC[C@@H]3C(c4ccc5c(c4)OCO5)OC[C@H]23)ccc1O` (mixture of isomers), in [1], the outcome was inactive.

With `COc1cc([C@H]2OC[C@H]3[C@@H]2CO[C@@H]3c2ccc3c(c2)OCO3)ccc1O`, the outcome in experiment [1] was inactive.

As for `Oc1ccc([C@H]2OC[C@H]3[C@@H]2CO[C@H]3c2ccc(O)c(O)c2)cc1O`, the outcome in [1] was inactive.

Consider `c1cc2c(cc1[C@H]1OC[C@H]3[C@@H]1CO[C@@H]3c1ccc3c(c1)OCO3)OCO2`, for which the outcome in experiment [1] was inactive.

With `Oc1ccc([C@H]2OC[C@H]3[C@@H]2CO[C@@H]3c2ccc3c(c2)OCO3)cc1O`, the fold change (FC) in [2] was determined as 6; in experiment [1], 2. Also, the outcome in experiment [3], in experiment [7], in experiment [12], in [15], in [22] and in [23] was inactive. Further, in experiment [24], the result was inactive. The outcome in experiment [4], in experiment [5], in experiment [6], in experiment [8], in experiment [10] and in experiment [14] was Active. Besides, the outcome in experiment [16], in [17], in experiment [18], in experiment [19], in experiment [20] and in experiment [21] was Active. The result in experiment [26] and in [27] was Active. Besides, the viability at 5 µM in [9] was 67%. In addition, the viability at 2 µM in experiment [11] was 52%. The viability at 10 µM in experiment [13] stood at 82%. Besides, the Activity result in experiment [25] is “Dose-dependent effect”.

`Oc1ccc(C2OC[C@@H]3C(c4ccc5c(c4)OCO5)OC[C@H]23)cc1O` (some centres undefined): the fold change (FC) in [1] amounted to 2.

(Values after ChEMBL document CHEMBL1687931, “Involvement of heme oxygenase-1 induction via Nrf2/ARE activation in protection against H2O2-induced PC12 cell death by a metabolite of sesamin contained in sesame seeds” (2011).)
